According to patent US20230310464A1, “USE OF C[…] THE TREATMENT OF SEIZURES ASSOCIATED WITH RARE […] SYNDROMES RELATED TO BRAIN INJURY” (GW Research Limited, priority 2020, published 2023):

Tested on: seizures associated with hypoxic ischaemic encephalopathy (HIE) or anoxia at birth
Test: Open label, expanded-access program: seizure frequency recorded by caregivers in a diary, relative to baseline
Type: in vivo, human
Set-up: reduction in tonic seizures over the treatment period / reduction in spasms over the treatment period / reduction in absence seizures over the treatment period / reduction in tonic-clonic seizures over the treatment period / reduction in myoclonic seizures over the treatment period: concentration or dose not given beside the values; Seizure frequency, Tonic / Seizure frequency, Spasm / Seizure frequency, Absence / Seizure frequency, Tonic-clonic / Seizure frequency, Focal with impairment / Seizure frequency, Atonic / Seizure frequency, Focal without impairment / Seizure frequency, Focal secondary generalisation / Seizure frequency, Myoclonic: unit not given here
Protocol: Subjects were required to be on one or more AEDs at stable doses for a minimum of two weeks prior to baseline and to have stable vagus nerve stimulation (VNS) settings and ketogenic diet ratios for a minimum of four weeks prior to baseline.
Dose was then increased weekly by 5 mg/kg/day to a goal of 20 to 25 mg/kg/day.
Modifications were made to concomitant AEDs as per clinical indication.
Seizure frequency, intensity, and duration were recorded by caregivers in a diary during a baseline period of at least 28 days. Changes in seizure frequency relative to baseline were calculated after at least 2 weeks and at defined timepoints of treatment.
Patients may be defined as responders if they had more than 50% reduction in seizure frequency compared to baseline. The percent change in seizure frequency was calculated as follows: […]
The percent change of seizure frequency may be calculated for any time interval where seizure number has been recorded. For the purpose of this example the percent change of seizure frequency for the end of the treatment period was calculated as follows: […]

[1] = Patient 1, 2 weeks, CBD 8.3 mg/kg/day
[2] = Patient 1, 4 weeks, CBD 20.8 mg/kg/day
[3] = Patient 1, 8 weeks, CBD 25.2 mg/kg/day
[4] = Patient 1, 16 weeks, CBD 23.4 mg/kg/day
[5] = Patient 1, 24 weeks, CBD 22.9 mg/kg/day
[6] = Patient 1, 36 weeks, CBD 25.7 mg/kg/day
[7] = Patient 1, 48 weeks, CBD 21.8 mg/kg/day
[8] = Patient 1, treated for 48 weeks, vs baseline
[9] = Patient 2, 4 weeks, CBD 20.0 mg/kg/day
[10] = Patient 2, 8 weeks, CBD 25.0 mg/kg/day
[11] = Patient 2, 16 weeks, CBD 25.0 mg/kg/day
[12] = Patient 2, 24 weeks, CBD 25.0 mg/kg/day
[13] = Patient 2, 36 weeks, CBD 25.0 mg/kg/day
[14] = Patient 2, 48 weeks, CBD 25.0 mg/kg/day
[15] = Patient 2, 60 weeks, CBD 25.0 mg/kg/day
[16] = Patient 2, 72 weeks, CBD 25.0 mg/kg/day
[17] = Patient 2, 84 weeks, CBD 25.0 mg/kg/day
[18] = Patient 2, treated for 84 weeks, vs baseline
[19] = Patient 3, 4 weeks, CBD 5.0 mg/kg/day
[20] = Patient 3, 8 weeks, CBD 20.0 mg/kg/day
[21] = Patient 3, 12 weeks, CBD 25.0 mg/kg/day
[22] = Patient 3, 16 weeks, CBD 25.0 mg/kg/day
[23] = Patient 3, 24 weeks, CBD 30.0 mg/kg/day
[24] = Patient 3, 36 weeks, CBD 40.0 mg/kg/day
[25] = Patient 3, 48 weeks, CBD 50.0 mg/kg/day
[26] = Patient 3, 72 weeks, CBD 50.0 mg/kg/day
[27] = Patient 3, 84 weeks, CBD 50.0 mg/kg/day
[28] = Patient 3, 96 weeks, CBD 50.0 mg/kg/day
[29] = Patient 3, 108 weeks, CBD 50.0 mg/kg/day
[30] = Patient 3, 120 weeks, CBD 50.0 mg/kg/day
[31] = Patient 3, 132 weeks, CBD 50.0 mg/kg/day
[32] = Patient 4, 4 weeks, CBD 5.0 mg/kg/day
[33] = Patient 4, 8 weeks, CBD 5.0 mg/kg/day
[34] = Patient 4, 12 weeks, CBD 10.0 mg/kg/day
[35] = Patient 4, 24 weeks, CBD 15.0 mg/kg/day
[36] = Patient 4, 36 weeks, CBD 15.0 mg/kg/day

## C=C(C)[C@@H]1CCC(C)=C[C@H]1c1c(O)cc(CCCCC)cc1O [CBD, cannabidiol]
[1]
  Seizure frequency, Spasm: 108.0
  Seizure frequency, Tonic: 1044.0
[2]
  Seizure frequency, Spasm: 102.8
  Seizure frequency, Tonic: 904.0
[3]
  Seizure frequency, Spasm: 50.8
  Seizure frequency, Tonic: 770.0
[4]
  Seizure frequency, Spasm: 78.0
  Seizure frequency, Tonic: 764.8
[5]
  Seizure frequency, Spasm: 48.0
  Seizure frequency, Tonic: 917.2
[6]
  Seizure frequency, Spasm: 51.2
  Seizure frequency, Tonic: 634.0
[7]
  Seizure frequency, Spasm: 69.2
  Seizure frequency, Tonic: 424.8
[8]
  reduction in spasms over the treatment period: 44.2%
  reduction in tonic seizures over the treatment period: 59.8%
[9]
  Seizure frequency, Absence: 52.0
  Seizure frequency, Spasm: 440.0
[10]
  Seizure frequency, Absence: 52.0
  Seizure frequency, Spasm: 600.0
[11]
  Seizure frequency, Absence: 12.0
  Seizure frequency, Spasm: 632.0
[12]
  Seizure frequency, Absence: 24.0
  Seizure frequency, Spasm: 580.0
[13]
  Seizure frequency, Absence: 0
  Seizure frequency, Spasm: 560.0
[14]
  Seizure frequency, Absence: 0
  Seizure frequency, Spasm: 490.0
[15]
  Seizure frequency, Absence: 0
  Seizure frequency, Spasm: 196.0
[16]
  Seizure frequency, Absence: 0
  Seizure frequency, Spasm: 300.0
[17]
  Seizure frequency, Absence: 0
  Seizure frequency, Spasm: 340.0
[18]
  reduction in absence seizures over the treatment period: 100%
  reduction in spasms over the treatment period: 41.4%
[19]
  Seizure frequency, Focal with impairment: 43.0
  Seizure frequency, Tonic: 193.0
  Seizure frequency, Tonic-clonic: 2.0
[20]
  Seizure frequency, Focal with impairment: 132.0
  Seizure frequency, Tonic: 132.0
  Seizure frequency, Tonic-clonic: 0
[21]
  Seizure frequency, Focal with impairment: 38.0
  Seizure frequency, Tonic: 123.0
  Seizure frequency, Tonic-clonic: 0
[22]
  Seizure frequency, Focal with impairment: 46.0
  Seizure frequency, Tonic: 120.0
  Seizure frequency, Tonic-clonic: 6.0
[23]
  Seizure frequency, Focal with impairment: 51.2
  Seizure frequency, Tonic: 122.0
  Seizure frequency, Tonic-clonic: 4.8
[24]
  Seizure frequency, Tonic: 124.8
  Seizure frequency, Tonic-clonic: 20.0
[25]
  Seizure frequency, Focal with impairment: 38.8
  Seizure frequency, Tonic: 136.0
  Seizure frequency, Tonic-clonic: 11.2
[26]
  Seizure frequency, Focal with impairment: 53.0
  Seizure frequency, Tonic: 94.7
  Seizure frequency, Tonic-clonic: 4.0
[27]
  Seizure frequency, Focal with impairment: 53.0
  Seizure frequency, Tonic: 72.0
  Seizure frequency, Tonic-clonic: 5.7
[28]
  Seizure frequency, Focal with impairment: 46.3
  Seizure frequency, Tonic: 70.0
  Seizure frequency, Tonic-clonic: 11.6
[29]
  Seizure frequency, Focal with impairment: 46.4
  Seizure frequency, Tonic: 35.0
  Seizure frequency, Tonic-clonic: 10.4
[30]
  Seizure frequency, Focal with impairment: 62.8
  Seizure frequency, Tonic: 46.8
  Seizure frequency, Tonic-clonic: 9.8
[31]
  Seizure frequency, Focal with impairment: 77.2
  Seizure frequency, Tonic: 54.4
  Seizure frequency, Tonic-clonic: 12.0
[32]
  Seizure frequency, Atonic: 0
  Seizure frequency, Tonic: 4.0
  Seizure frequency, Tonic-clonic: 13.0
[33]
  Seizure frequency, Atonic: 0
  Seizure frequency, Tonic: 3.0
  Seizure frequency, Tonic-clonic: 18.0
[34]
  Seizure frequency, Atonic: 0
  Seizure frequency, Tonic: 0
  Seizure frequency, Tonic-clonic: 10.0
[35]
  Seizure frequency, Atonic: 6.0
  Seizure frequency, Tonic: 0
  Seizure frequency, Tonic-clonic: 0.6
[36]
  Seizure frequency, Atonic: 1.7
  Seizure frequency, Tonic: 0
